Test results: patent US20210379062A1, “The use of a H3R inverse agonist for the treatment of excessive daytime sleepiness associated with parkinson's disease (PD)” (Novartis AG, priority 2018, published 2021)
Values joined by “and” are separate entries in the source; they are usually repeats but may differ in a detail not shown here. Equal values may be shown once.

Target: H3 receptors in the brain (Homo sapiens, UniProt Q9Y5N1)
Assay: PET brain H3 receptor occupancy study with [11C]MK-8278 in healthy volunteers
Assay type: in vivo
Experimental: An open-label, adaptive design study was performed in healthy volunteers to characterize regional brain H3 receptor occupancy following single dose of Compound (I) by using positron emission tomography (PET) with the radioligand [^11C]MK-8278 (Van Laere, K. J. et al, Journal of Nuclear Medicine, 2014, 55: 65-72). The primary objective of this study was to evaluate the plasma concentration of Compound (I) leading to 50% occupancy of H3 receptors in the brain (EC50). A total of 6 subjects were enrolled into the study and were scanned in three cohorts of two subjects each. Prior to dosing with Compound (I), each subject underwent a baseline PET scan to assess binding of [^11C]MK-8278 to H3R in the absence of Compound (I). Subjects subsequently received single oral doses of Compound (I) and then underwent two post-dose PET scans. Subjects of cohort 1 received a single oral dose of 300 mg of Compound (I), corresponding to the single dose maximum tolerated dose (MTD) determined from the Phase I study after single oral dose of Compound (I). These subjects underwent two post-dose PET scans, at 3 hours and 27 hours after dosing. The doses and scan timings for the subsequent cohorts were selected based on interim data analyses following the completion of the preceding cohort(s). Subjects of cohorts 2 and 3 received a single oral dose of 10 mg and 0.3 mg, respectively. Compound (I) was administered as capsules in cohorts 1 and 2, whereas cohort 3 received Compound (I) as an oral solution. […] The first post-dose PET scan for cohorts 2 and 3 was acquired at 3 hours and the second one at 27 hours and 8 hours after dosing, respectively.
The binding was consistent with both the known distribution of H3 receptors and previous [^11C]MK-8278 data (Van Laere, K. J. et al, Journal of Nuclear Medicine, 2014, 55: 65-72). The kinetics of [^11C]MK-8278 in brain were analyzed using different modelling approaches, such as the one- and two-tissue compartment (1TC, 2TC) models, multilinear analysis (MA1; Ichise, M. et al., Journal of Cerebral Blood Flow and Metabolism, 2002, 22: 1271-1281) and the Logan graphical method (Logan, J. et al., Journal of Cerebral Blood Flow and Metabolism, 1990, 10(5): 740-747). All methods produced similar results, but the 2TC model was the most appropriate to derive regional VT values. Tissue time-activity curves (TACs) were generated for all scans and were characterized by a peak at around 5-15 minutes post-injection, followed by washout. After administration of Compound (I), regional binding of [^11C]MK-8278 was reduced compared to baseline scans, indicating engagement of Compound (I) with the target. The occupancy plot method proposed by Lassen (Lassen, N. A. et al., Journal of Cerebral Blood Flow and Metabolism, 1995, 15 (1): 152-165; Cunningham, V. J. et al., Journal of Cerebral Blood Flow and Metabolism, 2010, 30 (1): 46-50) was applied to estimate whole-brain H3 receptor occupancy for each post-dose PET scan. This method also provided consistent estimates of the non-displaceable component (VND).
The relationship between plasma concentration of Compound (I) and H3 receptor occupancy was characterized plotting occupancy estimates against corresponding plasma concentration data (measured at the start of each post-dose PET scan). The RO versus concentration was analyzed using the Emax model:
Where RO=Receptor occupancy; Emax=maximum receptor occupancy; Cp=plasma concentration of Compound (I) during PET scan; EC50=plasma concentration leading to 50% of maximum change in RO.

Sequence of H3 receptors in the brain (Q9Y5N1 whole entry): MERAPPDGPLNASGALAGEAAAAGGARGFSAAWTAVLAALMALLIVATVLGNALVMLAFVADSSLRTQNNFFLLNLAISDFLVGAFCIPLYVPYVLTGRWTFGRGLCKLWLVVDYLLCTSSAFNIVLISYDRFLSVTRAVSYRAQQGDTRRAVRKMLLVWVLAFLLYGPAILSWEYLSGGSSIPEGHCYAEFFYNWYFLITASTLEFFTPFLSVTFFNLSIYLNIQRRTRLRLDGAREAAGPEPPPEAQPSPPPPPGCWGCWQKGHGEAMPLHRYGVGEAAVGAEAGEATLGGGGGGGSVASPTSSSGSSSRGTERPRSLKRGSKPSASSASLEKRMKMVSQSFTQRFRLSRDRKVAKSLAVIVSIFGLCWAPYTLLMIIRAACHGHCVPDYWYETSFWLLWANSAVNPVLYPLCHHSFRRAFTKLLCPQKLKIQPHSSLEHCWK

Cn1nc(N2CCC(OC(=O)N3CCN(C4CCC4)CC3)CC2)ccc1=O [Compound (I), 1-(1-methyl-6-oxo-1,6-dihydropyridazin-3-yl)piperidin-4-yl 4-cyclobutylpiperazine-1-carboxylate]
Emax (maximum receptor occupancy) (Emax model of PK-RO relationship): 96.1% and 96.16%
Receptor occupancy (RO) (first cohort, single oral dose 300 mg, 3 hours post-dose, both subjects): higher than 95%
Receptor occupancy (RO) (first cohort, single oral dose 300 mg, 27 hours post-dose, both subjects): higher than 95%
EC50 (read-out: EC50 (plasma concentration leading to 50% occupancy of H3 receptors), Emax model of PK-RO relationship, plasma concentration): 0.772 nM
Receptor occupancy (RO) (second cohort, single oral dose 10 mg, 3 hours post dose): similarly high
Receptor occupancy (RO) (second cohort, single oral dose 10 mg, 27 hours post dose): decreased
Receptor occupancy (RO) (third cohort, single oral dose 0.3 mg, 3 h and 8 h post dose): generally lower than in the other cohorts
